Source: PMC10305119, “Analogs of 6-Bromohypaphorine with Increased Agonist Potency for α7 Nicotinic Receptor as Anti-Inflammatory Analgesic Agents” (Marine Drugs, 2023)
Entries after “also recorded” stand apart in the source; their conditions may differ.

How the values were obtained:
[1] = test system: STAT3 phosphorylation; experiment: STAT3 phosphorylation in LPS-stimulated macrophages (flow cytometry); type: cell-based, human; details: compound 1 h, then LPS 3 h; control MFI 49
Method: To gain an insight into the signaling induced by the tested compounds, ERK1/2 and STAT3 phosphorylation was checked. Macrophages were treated with tested compounds for 1 h, after which they were stimulated with LPS for 3 h.
(§1) Peripheral blood mononuclear cells (PBMCs) were separated by Ficoll-Paque PLUS density gradient centrifugation. PBMCs were placed in a sterile Petri dish and incubated at 37 °C for 2 h. Unattached cells were then removed by washing with PBS and substituted with fresh complete RPMI 1640 medium. To generate monocyte-derived macrophages (MDMs), 50 ng/mL GM-CSF was added to the isolated monocytes and cultured for 6 days to differentiate them into non-polarized MDMs.
Figure 5 Effects of the analyzed compounds on signaling pathways in LPS-stimulated macrophages. Cells were treated with PNU 282987, hypaphorine, or 6-iodohypaphorine methyl ester (6ID) for 1 h and then stimulated with LPS for 3 h. Phosphorylated ERK1/2 and STAT3 were quantified by flow cytometry with specific antibodies. […] (c): Representative histogram showing the increase in ERK 1/2 phosphorylation in comparison to control. The numbers in the histograms show the MFI ± SD (n = 3). MFI—geometrical mean fluorescence intensity. One-way ANOVA tests with Tukey post hoc test: * p ˂ 0.05, ** p ˂ 0.01, *** p < 0.001 in comparison with untreated cells. TEXT PRINTED IN THE PICTURE: (c) Control: PE-ERK 1/2 Phospho: 193.7±1.5 | (c) PNU 282987: PE-ERK 1/2 Phospho: 251.3±13.7 | (c) Hy: PE-ERK 1/2 Phospho: 246.0±15.7 | (c) 6ID: PE-ERK 1/2 Phospho: 273.7±8.1 DOUBTS OF THE COPYIST ABOUT THIS PICTURE: Panel c: no measure or unit is printed beside the numbers; the x-axis label "PE-ERK 1/2 Phospho" is used as the measure / "Control" is the untreated reference rather than a substance; it is included because a value is printed with it

[2] = biological target: T1, α9α10 nAChR (Homo sapiens, UniProt Q9GZZ6+Q9UGM1); experiment: Two-electrode voltage-clamp on α9/α10 nAChR in Xenopus oocytes; type: cell-based
T1 construct: expressed in transfected cells; host or cells: Xenopus oocytes injected with in vitro transcribed RNA
T1 sequence (Q9UGM1 26-479 limits assumed): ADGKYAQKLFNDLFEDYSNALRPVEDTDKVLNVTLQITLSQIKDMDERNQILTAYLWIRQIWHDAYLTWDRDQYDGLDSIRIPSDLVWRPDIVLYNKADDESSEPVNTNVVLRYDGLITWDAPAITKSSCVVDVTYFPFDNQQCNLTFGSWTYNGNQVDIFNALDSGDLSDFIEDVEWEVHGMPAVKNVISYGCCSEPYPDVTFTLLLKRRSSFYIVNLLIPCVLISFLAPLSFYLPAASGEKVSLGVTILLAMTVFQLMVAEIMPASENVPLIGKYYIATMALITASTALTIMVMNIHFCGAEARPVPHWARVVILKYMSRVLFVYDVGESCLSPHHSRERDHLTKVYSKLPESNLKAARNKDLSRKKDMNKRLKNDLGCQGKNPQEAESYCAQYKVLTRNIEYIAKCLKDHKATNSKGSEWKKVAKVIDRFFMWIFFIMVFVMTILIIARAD
T1 sequence (Q9GZZ6 25-450): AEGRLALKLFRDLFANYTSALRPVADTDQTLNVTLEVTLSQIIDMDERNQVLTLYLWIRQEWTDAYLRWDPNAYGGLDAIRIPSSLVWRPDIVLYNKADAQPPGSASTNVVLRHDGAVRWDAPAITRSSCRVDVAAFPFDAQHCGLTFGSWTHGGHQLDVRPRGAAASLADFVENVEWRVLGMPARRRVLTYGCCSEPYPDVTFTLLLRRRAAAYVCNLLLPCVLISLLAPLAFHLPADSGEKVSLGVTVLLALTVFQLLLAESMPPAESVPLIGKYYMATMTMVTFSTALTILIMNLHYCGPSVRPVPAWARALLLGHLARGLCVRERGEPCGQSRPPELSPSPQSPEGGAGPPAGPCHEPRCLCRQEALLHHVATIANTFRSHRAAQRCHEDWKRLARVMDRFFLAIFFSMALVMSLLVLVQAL
Method: Recordings were performed using Axopatch 200 amplifier in two-electrode voltage-clamp setup (Molecular Devices, LLC, San Jose, CA, USA) on oocytes removed from mature Xenopus frogs. Two to three days before taking recordings, oocytes were injected with in vitro transcribed RNA, coding α9 and α10 nAChR and kept at 18 °C in ND96 electrophysiology buffer solution (5 mM HEPES/NaOH at pH 7.6 and 18 °C, 96 mM NaCl, 2 mM KCl, 1.8 mM CaCl2, 2 mM MgCl2).

[3] = test system: CD11c expression on macrophages; experiment: Flow cytometry of macrophage membrane protein CD11c; type: cell-based, human; details: 48 h
Method: The selective agonist PNU 282,987 increased CD11b and CD11c protein expression by an average of 10% and 26%, respectively (Figure 4a,b).
as §1
(§2) Figure 4 The effects of PNU 282987, hypaphorine, and D-6-iodohypaphorine methyl ester (6ID) on macrophage membrane proteins expression. Cells were treated with these compounds for 48 h and then analyzed by flow cytometry. PNU 282,987 led to an increase in the (a) CD11b and (b) CD11c expression. (c): All tested compounds led to a decrease in TLR4 expression. (d): Macrophages stimulation with hypaphorine and 6ID promoted an increase in CD86 expression. Results obtained in three independent experiments on macrophages from different donors and presented as mean ± SD. One-way ANOVA tests with Tukey post hoc test: * p ˂0.05, ** p ˂ 0.01, **** p < 0.0001 in comparison with untreated cells.

[4] = test system: TLR4 expression on macrophages; experiment: Flow cytometry of TLR4 receptor on macrophages; type: cell-based, human; details: 48 h incubation
Method: The effect of the above-listed compounds on the expression of the TLR4 receptor and the CD86 protein was studied by flow cytometry after 48 h incubation with macrophages. The interaction of bacterial endotoxins with the TLR4 receptor is known to activate the expression of several pro-inflammatory cytokine genes, while the co-stimulatory molecule CD86 plays an important role in […] inflammatory responses. A decrease in the expression of the TLR4 receptor was observed under the action of all tested compounds (Figure 4c,e), the rank order of these TLR4-suppressing effects was as follows: hypaphorine (14%) < PNU 282,987 (21%) < 6ID (31%).
as §1, §2

[5] = test system: CFA-induced inflammation; experiment: CFA-induced inflammation test; type: in vivo, ICR mice; details: mice; for analgesia in hot plate test: 2 h after injection, 53 °C, doses 0.1, 0.5, 1 mg/kg; for oedema (paw diameter): intramuscular 0.1, 0.5, 1 mg/kg, measured 6-48 h
Method: Anti-inflammatory effect of two analogs of 6-substituted hypaphorine (6ND and 6ID) was tested in a model with subplantar administration of complete Freund’s adjuvant (CFA) in mice. CFA was injected once into the footpad to induce oedema in 24 h. Oedema was measured with an electronic calliper. Immediately after paw measurement, 6ND or 6ID was injected intramuscularly in doses 1, 0.5, and 0.1 mg/kg. Paws were measured at 6, 12, 24, and 48 h after administration of 6ND or 6ID. […] End points at 48 h of drug treatments at dose […] have been analyzed in terms of paw diameter normalized to the maximal oedemic levels in each group (Figure 6d).
Additionally, after 2 h following the drug injection, the analgesia test was conducted on the “hot plate” preheated to 53 °C. The time of withdrawal or licking of the affected paw was assessed for each animal.
The development of the inflammation and thermal hyperalgesia of the paw was induced by the injection of the oil/saline (1:1) CFA emulsion (Sigma-Aldrich, St. Louis, MO, lot # WH327536) into the subplantar surface of the hind paw of the ICR mice (20 µL/paw) 24 h before the measurement. Oedema was measured with an electronic calliper. Immediately after paw measurement, 6ND or 6ID were injected intramuscularly in doses: 1, 0.5, and 0.1 mg/kg. Paws were measured at 6, 12, 24, and 48 h after administration of 6ND or 6ID. After 2 h following the drug injection, the inflamed paw withdrawal or licking latencies to thermal stimulation were measured on a hot plate device (Hot Plate Analgesia Meter, Columbus Instruments) with a set temperature of 53 ± 0.1 °C and a cut-off time of 60 s.

[6] = test system: myocardial infarction model; set-up: method as in PMID 35538277; details: cited from earlier work

| Structure (SMILES) | STAT3 phosphorylation, MFI [1] | activity toward α9α10 nAChR [2] | increase in CD11c protein expression ([3]; listed as 6ID) | decrease in the expression of the TLR4 receptor [4] | analgesia in hot plate test ([5]; listed as 6ID) | oedema (paw diameter) ([5]; listed as 6ID) | effect in myocardial infarction model [6] | analgesia in hot plate test ([5]; listed as 6ND) | increase in CD11c protein expression [3] | analgesia in hot plate test [5] | oedema reduction at 48 h end point, normalized to maximal oedema ([5]; dose 0.5, 48 h) | oedema (paw diameter) ([5]; listed as Hypaphorine) | oedema (paw diameter) ([5]; listed as hypaphorine) |
| --- | --- | --- | --- | --- | --- | --- | --- | --- | --- | --- | --- | --- | --- |
| COC(=O)[C@@H](Cc1c[nH]c2cc(I)ccc12)[N+](C)(C)C [Compound 1, (D)-6-iodohypaphorine methyl ester] | 58 | almost inactive | not statistically significant; also recorded: but not 6ID or hypaphorine, leads to a significant increase | 31% | effective in the hot plate test at 0.5 as well as at 1 mg/kg; also recorded: at doses 0.5 and 1 mg/kg showed significant analgesia | significantly reduced by 6ID at 0.5 mg/kg starting from 12 h of treatment; also recorded: effective against oedema at doses 0.5 and 1 mg/kg |  |  |  |  |  |  |  |
| COC(=O)C(Cc1c[nH]c2cc([N+](=O)[O-])ccc12)[N+](C)(C)C (stereo not drawn) [Compound 5, methyl ester of 6-nitrohypaphorine] |  |  |  |  |  |  | significant positive effect | significant analgesia in hot plate test only at 0.1 mg/kg; also recorded: at a dose of 0.1 mg/kg has a pronounced analgesic effect, but higher doses did not show a difference from the control group |  |  |  |  |  |
| C[N+](C)(C)[C@H](Cc1c[nH]c2ccccc12)C(=O)[O-] [Compound 16, L-hypaphorine, reference compound] | increase in the phosphorylation |  |  | 14% |  |  |  |  | but not 6ID or hypaphorine, leads to a significant increase | analgesia in hot plate test at all tested doses from 0.1 to 1 mg/kg | markedly less effective reduction of oedema than 6ND and 6ID | demonstrated anti-oedemic properties | significantly reduced edema in a concentration-dependent manner at doses 0.1–1 mg/kg |
